This note sets out measurements from USRE33375E, “Treatments employing drug-containing matrices for introduction into cellular lesion areas” (Matrix Pharmaceuticals, Inc., priority 1988, dated 1990).

The test system of experiment [1] is RIF-1 tumor. Description: RIF-1 tumor regrowth delay, cis-DDP-matrix implant in combination with hyperthermia. The note with it: cis-DDP 6 mg/Kg, i.p. Type of experiment: in vivo, female C3H mice. The procedure: In the next study cis-DDP-matrix (DDP=cis-Pt) implant in combination with hyperthermia was evaluated.
2. Hyperthermia (43° C., 30 min) alone
3. Hyperthermia+collagen-matrix (CM)+epinephrine (epi) (2 mg/Kg)
4. cis-DDP (6 mg/Kg) i.p.
6. cis-DDP (i.p.) 30 min before hyperthermia
7. cis-DDP-CM-epi (i.t.) 30 min before hyperthermia.
The tumor bearing mice were heated in a precision water bath with 30 gauge thermistor thermometry (±0.2° C.).

In experiment [2] the test system is uninjected contralateral fibrosarcoma (RIF-1 cells). In words: Regrowth delay of the uninjected contralateral fibrosarcoma. Type of experiment: in vivo, murine; female C3H mice. As to conditions: time to 4 times initial volume, Mean ± S.E. The procedure: A transplantable experimental murine fibrosarcoma (2×10^5 RIF-1 cells) was grown intradermally in the flank of 5 month old female C3H mice (Bantin and Kingman, Fremont, Calif.). Cis-diamine dichloroplatinum (II) (cis-Pt) (Sigma Chemical Co., St. Louis, Mo.) was dissolved in sterile saline at concentrations of 0.8, 1.6 and 3.2 mg/ml and mixed 1:1 with bovine collagen (BC) (36 mg/ml) in PBS 20 mM phosphate, 140 mM NaCl (Collagen Corp., Palo Alto, Calif.). Doses of 2, 4 and 8 mg/kg host of cis-Pt were delivered in 0.1 ml of the collagenous drug mixture to the center of the tumor growing in the flank (intratumorally, i.t.), and the tumor measured. The growth of a second uninjected tumor on the opposing flank of the same mouse was also measured. In addition, cis-Pt dissolved in PBS without collagen was administered intraperitoneally (i.p.) to other tumor-bearing mice (4 tumors/group) to monitor the effects on tumor growth of the drug without collagen. Furthermore, the effect of bovine collagen on tumor growth was also studied by injection of 0.1 ml of collagen, (18 mg/ml) into the experimental fibrosarcomas, as previously described. The growth of the tumors was monitored three times per week by caliper measurements of three perpendicular diameters of the tumor and calculating tumor volume from the formula
*Regrowth Delay determined as the time (days) for tumors to grow to four
times their initial treatment volume (150 mm^3).
In the next study 5-fluorouracil (5-FU) (Sigma Chem. Co., St. Louis, Mo.) with and without epinephrine (Sigma) suspended in saline by sonication (60 mg/ml) and mixed 1:1 with bovine collagen (BC) (Collagen Corp., Palo Alto, Calif.) (36 mg/ml) or normal saline. The subjects were 25 gm 12 week-old female C3H/He mice (Bantin and Kingman, Fremont, Calif.) bearing the transplatable experimental murine fibrosarcoma propagated intradermally as previously described.
The adriamycin in distilled water (4.45 mg/ml) was mixed with 36 mg/ml bovine collagen (BC) 1:1 to yield a composition ratio of 2.25 mg adriamycin:18 mg BC/ml.
^3 Contralateral Tumor RD (CRD). Time (days) required for untreated
contralateral tumors to grow to 3× its original treatment volume
(~150 mm^3). Decreasing RD indicate enhanced regionalization of
drug injected when compared to RD.
In the next study vincristine (VCR) was dissolved in saline (0.6 mg/ml) by sonication and mixed 1:1 with bovine collagen (36 mg/ml). Otherwise, the procedure was the same.
In the next study a combination of bleomycin sulfate (Sigma Chemical Co., St. Louis, Mo.) (15 mg/kg) and epinephrine (5 mg/kg) employed in a bovine collagen composition were evaluated for antitumor effect in the transplantable experimental murine fibrosarcoma model previously described. […]

For experiment [3], the system named is experimental murine fibrosarcoma (RIF-1 cells). Description: Regrowth delay of the treated transplantable murine fibrosarcoma. Type of experiment: in vivo, murine; female C3H mice. The note with it: time to 4 times initial treatment volume (150 mm^3), Mean ± S.E.
Method: times their initial treatment volume (150 mm^3). Increasing values
indicate enhanced therapeutic effect.
When the tumors reached a volume of 150 mm^3, the mice were assigned randomly to the following groups (4-6 mice per group): (1) untreated controls; (2) 5-FU (100 mg/kg), i.p., 0.1 ml/mouse; (3) 5-FU (100 mg/kg), i.t., 0.1 ml/tumor; (4) 5-FU-BC (100 mg 5-FU/kg dispersed in BC (18 mg/ml)), i.t., 0.1 ml/tumor; 5-FU-EPI-BC (100 mg 5-FU/kg) 5 mg EPI/kg dispersed in BC (18 mg/ml), i.t., 0.1 ml/tumor.
In the next study doxorubicin-HCl (ADM) (Adriamycin) was studied using the above-described protocol. The adriamycin in distilled water (4.45 mg/ml) was mixed with 36 mg/ml bovine collagen (BC) 1:1 to yield a composition ratio of 2.25 mg adriamycin:18 mg BC/ml.
^2 Tumor Regrowth Delay (RD). Time (days) required for tumors to grow
to 3 × its original treatment volume (~150 mm^3).
Increasing RD indicate increased tumor cell killing.

Each structure is given as a SMILES string.

As to `N.N.[Cl][Pt][Cl]` [cis-Pt, Cis-diamine dichloroplatinum (II)], the “Tumor Regrowth Delay (2×)” value turned out to be 8.9 ± 0.8 days in experiment [1] (30 min before hyperthermia (43° C., 30 min)) and 6.5 ± 1.5 days in experiment [1] (no hyperthermia). Moreover, the “Regrowth Delay, uninjected contra” value in experiment [2] (opposing tumor injected i.t. with 2 mg/kg cis-Pt) was found to be 9.3 ± 1.2 days; in experiment [2] (opposing tumor injected i.t. with 4 mg/kg cis-Pt) it was 8.9 ± 0.7 days; in experiment [2] (opposing tumor injected i.t. with 8 mg/kg cis-Pt), 9.9 ± 0.9 days. The “Regrowth Delay” value in experiment [3] (i.p., 2 mg/kg cis-Pt) was determined as 7.2 ± 0.1 days; in experiment [3] (i.p., 4 mg/kg cis-Pt), 9.1 ± 0.7 days; in experiment [3] (i.p., 8 mg/kg cis-Pt) it was 9.9 ± 1.0 days; in experiment [3] (i.t., 2 mg/kg cis-Pt, injected tumor), 9.5 ± 0.5 days; in experiment [3] (i.t., 4 mg/kg cis-Pt, injected tumor), 10.3 ± 0.7 days; in experiment [3] (i.t., 8 mg/kg cis-Pt, injected tumor), 11.5 ± 0.04 days.
